Consider 26 compounds from patent US8569344B2, “N-piperidinyl acetamide derivatives as calcium channel blockers” (Zalicus Pharmaceuticals Ltd., priority 2008, dated 2013).

Each structure is given as a SMILES string.

The target of the test is T1, human α1G T-type channels (Homo sapiens, UniProt O43497).
T1 construct: expressed in transfected cells; host or cells: HEK 293
T1 sequence (O43497 whole entry): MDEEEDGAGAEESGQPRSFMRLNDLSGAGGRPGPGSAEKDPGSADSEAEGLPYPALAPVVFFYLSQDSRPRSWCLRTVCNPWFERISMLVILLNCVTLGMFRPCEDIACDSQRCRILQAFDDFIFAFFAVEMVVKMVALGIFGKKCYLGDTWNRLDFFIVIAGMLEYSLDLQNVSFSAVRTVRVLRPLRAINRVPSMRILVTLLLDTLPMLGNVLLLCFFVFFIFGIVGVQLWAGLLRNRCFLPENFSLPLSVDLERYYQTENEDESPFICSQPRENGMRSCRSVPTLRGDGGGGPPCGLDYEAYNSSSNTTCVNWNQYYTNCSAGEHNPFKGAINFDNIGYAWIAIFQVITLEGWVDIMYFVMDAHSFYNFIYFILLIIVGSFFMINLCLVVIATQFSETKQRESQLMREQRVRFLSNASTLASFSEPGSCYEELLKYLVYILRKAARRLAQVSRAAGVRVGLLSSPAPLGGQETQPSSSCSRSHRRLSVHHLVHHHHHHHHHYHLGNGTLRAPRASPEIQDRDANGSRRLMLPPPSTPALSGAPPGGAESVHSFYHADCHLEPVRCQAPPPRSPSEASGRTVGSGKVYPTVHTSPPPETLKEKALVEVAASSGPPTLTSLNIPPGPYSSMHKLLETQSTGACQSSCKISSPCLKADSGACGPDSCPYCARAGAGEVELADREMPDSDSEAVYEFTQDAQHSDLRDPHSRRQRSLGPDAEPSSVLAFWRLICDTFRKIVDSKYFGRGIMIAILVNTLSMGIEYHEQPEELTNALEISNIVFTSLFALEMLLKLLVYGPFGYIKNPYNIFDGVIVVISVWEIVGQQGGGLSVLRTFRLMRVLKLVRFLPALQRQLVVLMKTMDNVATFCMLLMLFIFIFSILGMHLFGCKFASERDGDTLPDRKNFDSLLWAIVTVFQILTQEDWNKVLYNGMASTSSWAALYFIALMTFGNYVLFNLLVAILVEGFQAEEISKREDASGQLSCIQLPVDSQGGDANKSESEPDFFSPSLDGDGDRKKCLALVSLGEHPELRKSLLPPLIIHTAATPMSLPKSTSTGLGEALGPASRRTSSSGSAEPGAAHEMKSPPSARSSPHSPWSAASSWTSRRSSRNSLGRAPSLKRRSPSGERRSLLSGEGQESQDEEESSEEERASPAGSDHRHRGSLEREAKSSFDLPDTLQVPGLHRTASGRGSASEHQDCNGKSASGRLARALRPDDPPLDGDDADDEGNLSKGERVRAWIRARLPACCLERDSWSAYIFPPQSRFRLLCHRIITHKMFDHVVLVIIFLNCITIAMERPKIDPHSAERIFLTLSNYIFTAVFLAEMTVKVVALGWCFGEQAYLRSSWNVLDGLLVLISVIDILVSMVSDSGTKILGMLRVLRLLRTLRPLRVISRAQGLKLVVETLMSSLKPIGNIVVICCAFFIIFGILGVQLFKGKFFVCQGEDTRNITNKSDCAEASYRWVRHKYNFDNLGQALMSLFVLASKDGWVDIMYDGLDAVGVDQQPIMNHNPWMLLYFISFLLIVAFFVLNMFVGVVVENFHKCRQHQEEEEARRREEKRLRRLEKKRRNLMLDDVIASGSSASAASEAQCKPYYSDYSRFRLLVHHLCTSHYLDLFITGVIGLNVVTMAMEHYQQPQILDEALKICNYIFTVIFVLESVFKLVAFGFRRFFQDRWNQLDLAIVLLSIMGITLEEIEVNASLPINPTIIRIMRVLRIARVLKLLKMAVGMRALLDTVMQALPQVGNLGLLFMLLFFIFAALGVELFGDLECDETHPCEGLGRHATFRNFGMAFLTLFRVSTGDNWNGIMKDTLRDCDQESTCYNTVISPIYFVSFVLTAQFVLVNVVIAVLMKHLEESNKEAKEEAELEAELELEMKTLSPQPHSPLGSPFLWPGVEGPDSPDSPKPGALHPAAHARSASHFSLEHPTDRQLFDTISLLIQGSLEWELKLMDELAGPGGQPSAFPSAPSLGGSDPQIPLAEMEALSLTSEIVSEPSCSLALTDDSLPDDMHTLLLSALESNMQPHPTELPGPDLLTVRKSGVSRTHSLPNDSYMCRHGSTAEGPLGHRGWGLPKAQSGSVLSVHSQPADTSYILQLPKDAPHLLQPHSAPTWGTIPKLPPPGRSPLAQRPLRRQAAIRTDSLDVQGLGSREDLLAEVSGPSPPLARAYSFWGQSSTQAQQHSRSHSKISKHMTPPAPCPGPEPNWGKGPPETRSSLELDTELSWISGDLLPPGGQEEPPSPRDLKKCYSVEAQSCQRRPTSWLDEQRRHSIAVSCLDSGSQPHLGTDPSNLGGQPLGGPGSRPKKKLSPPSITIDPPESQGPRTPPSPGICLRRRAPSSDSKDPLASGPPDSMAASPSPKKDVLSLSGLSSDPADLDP
Briefly: T-type calcium channel block, whole cell patch clamp in HEK cells (α1G). The conditions noted are these: HEK cells, patch clamp, mainly non-inactivated protocol; values above 10 μM shown as 10 μM, below 0.30 μM shown as 0.30 μM; read-out: T-type Calcium Channel Block α1G IC50. It counts as cell-based. The method, then:
T-type calcium channel blocking activity was assayed in human embryonic kidney cells, HEK 293, stably transfected with the T-type calcium channel subunits. Briefly, cells were cultured in Dulbecco's modified eagle medium (DMEM) supplemented with 10% fetal bovine serum, 200 U/ml penicillin and 0.2 mg/ml streptomycin at 37° C. with 5% CO2. At 85% confluency cells were split with 0.25% trypsin/1 mM EDTA and plated at 10% confluency on glass coverslips. […] Fresh DMEM was supplied and the cells transferred to 28° C./5% CO2. Cells were incubated for 1 to 2 days prior to whole cell recording.
Standard patch-clamp techniques were employed to identify blockers of T-type currents. Briefly, previously described HEK cell lines stably expressing human α1G, α1H and α1I T-type channels were used for all the recordings (passage #: 4-20, 37° C., 5% CO2). Whole cell patch clamp experiments were performed using an Axopatch 200B amplifier (Axon Instruments, Burlingame, Calif.) linked to a personal computer equipped with pCLAMP software. Data were analyzed using Clampfit (Axon Instruments) and SigmaPlot 4.0 (Jandel Scientific). To obtain T-type currents, plastic dishes containing semi-confluent cells were positioned on the stage of a ZEISS AXIOVERT S100 microscope after replacing the culture medium with external solution (see below). Whole-cell patches were obtained using pipettes (borosilicate glass with filament, O.D.: 1.5 mm, I.D.: 0.86 mm, 10 cm length), fabricated on a SUTTER P-97 puller with resistance values of ˜5 MΩ (see below for internal solution).
In the non-inactivating protocol, the holding potential is set at −110 mV and with a pre-pulse at −100 mV for 1 second prior to the test pulse at −40 mV for 50 ms.
Test compounds were dissolved in external solution, 0.1-0.01% DMSO. After ˜10 min rest, they were applied by gravity close to the cell using a WPI microfil tubing. The “non-inactivated” pre-pulse was used to examine the resting block of a compound. The “inactivated” protocol was employed to study voltage-dependent block. […] Values are shown in μM and values above 10 μM are simply represented as 10 μM.
(In general: In patch-clamp work, channel activity is measured electrically.)
Regarding `CC(C)(C)OC(=O)NCCN1CCC(CNC(=O)c2cccc(S(C)(=O)=O)c2)CC1` [Compound 45, tert-butyl 2-(4-((3-(methylsulfonyl)benzamido)methyl)piperidin-1-yl)ethylcarbamate], the IC50 (as a rule, the concentration that gives 50% inhibition) is above 10 µM.
The value for `CC(C)(C)OC(=O)NCCN1CCC(CNC(=O)c2cccc(OC(C)(C)C)c2)CC1` [Compound 50, tert-butyl 2-(4-((3-tert-butoxybenzamido)methyl)piperidin-1-yl)ethylcarbamate] was 8.97 µM; that for `CC(C)(C)OC(=O)NCCN1CCC(CNC(=O)c2ccc(F)cc2F)CC1` [Compound 51, tert-butyl 2-(4-((2,4-difluorobenzamido)methyl)piperidin-1-yl)ethylcarbamate] was above 10 µM; that for `CC(C)(C)OC(=O)NCCN1CCC(CNC(=O)c2ccccc2C(F)(F)F)CC1` [Compound 53, tert-butyl 2-(4-((2-(trifluoromethyl)benzamido)methyl)piperidin-1-yl)ethylcarbamate] was above 10 µM.
The value for `CC(C)(C)OC(=O)NCCN1CCC(CNC(=O)c2ccccc2OC(F)(F)F)CC1` [Compound 55, tert-butyl 2-(4-((2-(trifluoromethoxy)benzamido)methyl)piperidin-1-yl)ethylcarbamate] was above 10 µM.
Regarding `CC(C)(C)[C@H](O)C(=O)N1CCC(CNC(=O)c2cc(C(F)(F)F)cc(C(F)(F)F)c2)CC1` [Compound 76, (S)-N-((1-(2-hydroxy-3,3-dimethylbutanoyl)piperidin-4-yl)methyl)-3,5-bis(trifluoromethyl) benzamide], the 50% inhibitory concentration (IC50) was 7.62 µM.
As for `NC1(C(=O)N2CCC(CNC(=O)c3cc(C(F)(F)F)cc(C(F)(F)F)c3)CC2)CCCC1` [Compound 85, N-((1-(1-aminocyclopentanecarbonyl)piperidin-4-yl)methyl)-3,5-bis(trifluoromethyl) benzamide], the IC50 is above 10 µM.
The value for `NC1(C(=O)N2CCC(CNC(=O)c3cc(C(F)(F)F)cc(C(F)(F)F)c3)CC2)CCCCC1` [Compound 86, N-((1-(1-aminocyclohexanecarbonyl)piperidin-4-yl)methyl)-3,5-bis(trifluoromethyl) benzamide] was above 10 µM.
The value for `CCC(O)(C(=O)N1CCC(CNC(=O)c2cc(C(F)(F)F)cc(C(F)(F)F)c2)CC1)C(C)(C)C` (centres unmarked) [Compound 90, N-((1-(2-ethyl-2-hydroxy-3,3-dimethylbutanoyl)piperidin-4-yl)methyl)-3,5-bis(trifluoromethyl)benzamide] was 4.27 µM; that for `CC(C)(C)C(O)C(=O)N1CCC(CNC(=O)c2cc(C(F)(F)F)cc(C(F)(F)F)c2)CC1` (centres unmarked) [Compound 91, N-((1-(2-hydroxy-3,3-dimethylbutanoyl)piperidin-4-yl)methyl)-3,5-bis(trifluoromethyl)benzamide] was above 10 µM.
Consider `CC(C)(O)C(=O)N1CCC(CC(=O)Nc2cc(C(F)(F)F)cc(C(F)(F)F)c2)CC1` [Compound 154, N-(3,5-bis(trifluoromethyl)phenyl)-2-(1-(2-hydroxy-2-methylpropanoyl)piperidin-4-yl)acetamide], for which the 50% inhibitory concentration (IC50) was 6.71 µM.
The value for `CC(C)(C)C(O)CN1CCC(CC(=O)Nc2nc3ccccc3[nH]2)CC1` (centres unmarked) [Compound 166, N-(1H-benzo[d]imidazol-2-yl)-2-(1-(2-hydroxy-3,3-dimethylbutyl)piperidin-4-yl)acetamide] was above 10 µM.
The value for `CC(C)(C)C(O)CN1CCC(CC(=O)NCc2cccc(OC(F)F)c2)CC1` (centres unmarked) [Compound 175, N-(3-(difluoromethoxy)benzyl)-2-(1-(2-hydroxy-3,3-dimethylbutyl)piperidin-4-yl)acetamide] was above 10 µM.
On to `CC(C)(C)C(O)CN1CCC(CC(=O)NCc2ccc3c(c2)CCO3)CC1` (centres unmarked) [Compound 176, N-((2,3-dihydrobenzofuran-5-yl)methyl)-2-(1-(2-hydroxy-3,3-dimethylbutyl)piperidin-4-yl)acetamide], for which the IC50 was above 10 µM.
The value for `CC(C)(C)C(O)CN1CCC(CC(=O)NCCc2ccc(F)cc2)CC1` (centres unmarked) [Compound 177, N-(4-fluorophenethyl)-2-(1-(2-hydroxy-3,3-dimethylbuyl)piperidin-4-yl)acetamide] was above 10 µM; that for `NC1(C(=O)N2CCC(CC(=O)Nc3cc(C(F)(F)F)cc(C(F)(F)F)c3)CC2)CC1` [Compound 190, 2-(1-(1-aminocyclopropanecarbonyl)piperidin-4-yl)-N-(3,5-bis(trifluoromethyl)phenyl) acetamide] was above 10 µM; that for `O=C(CC1CCN(C(=O)[C@H]2CCCN2)CC1)Nc1cc(C(F)(F)F)cc(C(F)(F)F)c1` [Compound 191, (R)-N-(3,5-bis(trifluoromethyl)phenyl)-2-(1-(pyrrolidine-2-carbonyl)piperidin-4-yl)acetamide] was above 10 µM.
To `NC1(C(=O)N2CCC(CC(=O)Nc3cc(C(F)(F)F)cc(C(F)(F)F)c3)CC2)CCOCC1` [Compound 194, 2-(1-(4-aminotetrahydro-2H-pyran-4-carbonyl)piperidin-4-yl)-N-(3,5-bis(trifluoromethyl)phenyl)acetamide] belongs above 10 µM; to `CC(C)(C)OC(=O)NC(CN1CCC(CC(=O)NCCc2c[nH]c3ccccc23)CC1)C(C)(C)C` (centres unmarked) [Compound 197, tert-butyl 1-(4-(2-(2-(1H-indol-3-yl)ethylamino)-2-oxoethyl)piperidin-1-yl)-3,3-dimethylbutan-2-ylcarbamate], above 10 µM.
Turning to `CC(C)(C)C(N)CN1CCC(CC(=O)NCc2cc(Cl)cc(Cl)c2)CC1` (centres unmarked) [Compound 201, 2-(1-(2-amino-3,3-dimethylbutyl)piperidin-4-yl)-N-(3,5-dichlorobenzyl) acetamide], the IC50 is above 10 µM.
The value for `CC(C)S(=O)(=O)NC(CN1CCC(CC(=O)NCCc2c[nH]c3ccc(F)cc23)CC1)C(C)(C)C` (centres unmarked) [Compound 206, 2-(1-(3,3-dimethyl-2-(1-methylethylsulfonamido)butyl)piperidin-4-yl)-N-(2-(5-fluoro-1H-3-yl)ethyl)acetamide] was above 10 µM.
Consider `CC(C)(C)C(CN1CCC(CC(=O)NCc2cc(Cl)cc(Cl)c2)CC1)NS(C)(=O)=O` (centres unmarked) [Compound 207, N-(3,5-dichhlorobenzyl)-2-(1-(3,3-dimethyl-2-(methylsulfonamido)butyl)piperidin-4-yl)acetamide], for which the IC50 is above 10 µM.
The value for `CCS(=O)(=O)NC(CN1CCC(CC(=O)NCc2cc(Cl)cc(Cl)c2)CC1)C(C)(C)C` (centres unmarked) [Compound 208, N-(3,5-dichlorobenzyl)-2-(1-(2-(ethylsulfonamido)-3,3-dimethylbutyl)piperidin-4-yl)acetamide] was above 10 µM; that for `CC(C)(C)C(CN1CCC(CC(=O)NCc2cc(Cl)cc(Cl)c2)CC1)NS(=O)(=O)C1CC1` (centres unmarked) [Compound 209, 2-(1-(2-(cyclopropanesulfonamido)-3,3-dimethylbutyl)piperidin-4-yl)-N-(3,5-dichlorobenzyl)acetamide] was 8.6 µM; that for `CC(C)(C)C(N)CN1CCC(CC(=O)NC(c2cccc(F)c2)c2cccc(F)c2)CC1` (centres unmarked) [Compound 217, 2-(1-(2-amino-3,3-dimethylbutyl)piperidin-4-yl)-N-(bis(3-fluorophenyl)methyl)acetamide] was 5.82 µM.
The value for `CC(C)(C)C(CN1CCC(CC(=O)NC(c2cccc(F)c2)c2cccc(F)c2)CC1)NS(C)(=O)=O` (centres unmarked) [Compound 219, N-(bis(3-fluorophenyl)methyl)-2-(1-(3,3-dimethyl-2-(methylsulfonamido)butyl)piperidin-4-yl)acetamide] was above 10 µM.
